From patent US20230233569A1 (Revolution Medicines, Inc., priority 2020, published 2023)
Like-named read-outs stand apart in the source and are kept apart here.

Assays:
NRAS WT = NRAS WT (Homo sapiens, UniProt P01111+P62937); assay: Disruption of BRAF RBD interaction with Ras (FRET / MOA assay, with Cyclophilin A); type: biochemical
Summary of the method: (§1)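 IC50 reflects compound-driven Ras:Cyclophilin A ternary complex displacing BRAF RBD, read as lowered TR-FRET ratio relative to DMSO after Eu anti-His (10 nM) and APC anti-GST (50 nM) detection for 1.5 h. Prior incubation 3 h, 25° C, with 12.5 nM GMPPNP-loaded Ras, 50 nM BRAF RBD, 25 μM Cyclophilin A; top compound 30 μM.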

NRAS Q61K = NRAS Q61K (Homo sapiens, UniProt P01111+P62937, Q61K); assay: as above; type: biochemical
Summary of the method: as §1

KRAS Q61H = KRAS Q61H (Homo sapiens, UniProt P01116+P62937, Q61H); assay: as above; type: biochemical
Summary of the method: as §1

NRAS Q61R = NRAS Q61R (Homo sapiens, UniProt P01111+P62937, Q61R); assay: as above; type: biochemical
Summary of the method: as §1

Capan-1 (K-Ras G12V) = assay: CellTiter-Glo cell viability assay, 5-day treatment; type: cell-based; conditions: Homo sapiens, CAPAN-1, 120 h
Summary of the method: (§2)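 Seeded cells received test compound by direct dispensing. On day 5 the plates sat at room temperature approximately 30 minutes, then luminescence was measured. Data were normalized to DMSO and curve-fitted with four parameters.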

NCI-H358 (K-Ras G12C) = assay: as above; type: cell-based; conditions: Homo sapiens, NCI-H358, 120 h, 5-day treatment; read-out: H358 Cell Viability assay data (K-Ras G12C, IC50)
Summary of the method: as §2

KRAS G13D = KRAS G13D (Homo sapiens, UniProt P01116+P62937, G13D); assay: Disruption of BRAF RBD interaction with Ras (FRET / MOA assay, with Cyclophilin A); type: biochemical
Summary of the method: (§3)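 Compound-driven ternary complex formation between nucleotide-loaded K-Ras and Cyclophilin A was measured as loss of BRAF RBD binding. Compounds (10-point 3-fold series, top 30 μM final) were incubated 3 h at 25 °C, then anti-His Eu-W1024 (10 nM) and anti-GST allophycocyanin (50 nM) added for 1.5 h. IC50 was taken from the TR-FRET ratio decrease versus DMSO.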

KRAS WT = KRAS WT (Homo sapiens, UniProt P01116+P62937); assay: as above; type: biochemical
Summary of the method: as §3

NRAS G12C = NRAS G12C (Homo sapiens, UniProt P01111+P62937, G12C); assay: as above; type: biochemical
KRAS G12S = KRAS G12S (Homo sapiens, UniProt P01116+P62937, G12S); assay: as above; type: biochemical
Summary of the method: as §3

KRAS G12D = KRAS G12D (Homo sapiens, UniProt P01116+P62937, G12D); assay: as above; type: biochemical
Summary of the method: as §3

KRAS G12V = KRAS G12V (Homo sapiens, UniProt P01116+P62937, G12V); assay: as above; type: biochemical
Summary of the method: as §3

KRAS G13C = KRAS G13C (Homo sapiens, UniProt P01116+P62937, G13C); assay: as above; type: biochemical
Summary of the method: as §3

KRAS G12C = KRAS G12C (Homo sapiens, UniProt P01116+P62937, G12C); assay: as above; type: biochemical
Summary of the method: as §3

[1] = NRAS WT, read-out: NRAS WT FRET data IC50
[2] = NRAS Q61K, read-out: NRAS Q61K FRET data IC50
[3] = KRAS Q61H, read-out: KRAS Q61H FRET data IC50
[4] = NRAS Q61R, read-out: NRAS Q61R FRET data IC50
[5] = 5-day treatment, read-out: Capan-1 Cell Viability assay data (K-Ras G12V, IC50)
[6] = KRAS G13D, read-out: KRAS G13D FRET data IC50
[7] = KRAS WT, read-out: KRAS WT FRET data IC50
[8] = NRAS G12C, read-out: NRAS G12C FRET data IC50
[9] = read-out: KRAS G12S FRET data, IC50
[10] = read-out: KRAS G12D FRET data, IC50
[11] = KRAS G12V, read-out: KRAS G12V FRET data IC50
[12] = read-out: KRAS G13C FRET data, IC50
[13] = read-out: KRAS G12C FRET data, IC50

Sequence of KRAS Q61H (P01116 1-169 isoform P01116-2 Q61H limits assumed): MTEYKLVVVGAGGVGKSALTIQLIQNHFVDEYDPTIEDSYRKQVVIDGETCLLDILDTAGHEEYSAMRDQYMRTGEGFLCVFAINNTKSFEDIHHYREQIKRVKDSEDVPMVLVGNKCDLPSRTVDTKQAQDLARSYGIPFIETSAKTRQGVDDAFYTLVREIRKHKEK
Sequence of KRAS Q61H (P62937 whole entry): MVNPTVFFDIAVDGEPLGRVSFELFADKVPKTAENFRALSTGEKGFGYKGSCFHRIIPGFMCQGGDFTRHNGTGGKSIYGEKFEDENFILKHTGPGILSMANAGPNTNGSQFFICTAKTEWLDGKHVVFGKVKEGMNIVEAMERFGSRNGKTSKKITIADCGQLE
Sequence of KRAS G12S (P01116 1-169 isoform P01116-2 G12S limits assumed): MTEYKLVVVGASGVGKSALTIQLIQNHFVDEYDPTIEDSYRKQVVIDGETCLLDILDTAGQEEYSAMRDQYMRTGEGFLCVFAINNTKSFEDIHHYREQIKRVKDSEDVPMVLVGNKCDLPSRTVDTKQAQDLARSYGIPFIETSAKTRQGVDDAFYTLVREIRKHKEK
Sequence of KRAS G12S (P62937 whole entry): as the sequence (P62937 whole entry) above
Sequence of NRAS WT (P01111 whole entry): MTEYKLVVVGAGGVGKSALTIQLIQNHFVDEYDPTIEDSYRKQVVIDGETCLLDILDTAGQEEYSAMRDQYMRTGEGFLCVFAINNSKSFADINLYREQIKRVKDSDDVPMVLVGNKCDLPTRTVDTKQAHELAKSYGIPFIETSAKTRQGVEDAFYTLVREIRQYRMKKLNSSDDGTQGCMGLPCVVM
Sequence of NRAS WT (P62937 whole entry): as the sequence (P62937 whole entry) above
Sequence of NRAS Q61K (P01111 whole entry Q61K): as the sequence (P01111 whole entry) above, with Q61K counted along it
Sequence of NRAS Q61K (P62937 whole entry): as the sequence (P62937 whole entry) above
Sequence of KRAS G12V (P01116 1-169 isoform P01116-2 G12V limits assumed): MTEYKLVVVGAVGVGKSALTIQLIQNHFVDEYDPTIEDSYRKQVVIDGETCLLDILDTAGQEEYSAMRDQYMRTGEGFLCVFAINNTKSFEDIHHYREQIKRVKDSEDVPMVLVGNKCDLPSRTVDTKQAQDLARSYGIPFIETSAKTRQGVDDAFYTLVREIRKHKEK
Sequence of KRAS G12V (P62937 whole entry): as the sequence (P62937 whole entry) above
Sequence of KRAS G13D (P01116 1-169 isoform P01116-2 G13D limits assumed): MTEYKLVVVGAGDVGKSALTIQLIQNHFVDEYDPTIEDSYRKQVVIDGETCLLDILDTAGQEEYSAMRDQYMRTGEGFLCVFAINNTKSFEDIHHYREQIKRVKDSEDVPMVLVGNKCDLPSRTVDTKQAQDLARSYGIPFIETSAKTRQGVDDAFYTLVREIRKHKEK
Sequence of KRAS G13D (P62937 whole entry): as the sequence (P62937 whole entry) above
Sequence of NRAS Q61R (P01111 whole entry Q61R): as the sequence (P01111 whole entry) above, with Q61R counted along it
Sequence of NRAS Q61R (P62937 whole entry): as the sequence (P62937 whole entry) above
Sequence of NRAS G12C (P01111 whole entry G12C): as the sequence (P01111 whole entry) above, with G12C counted along it
Sequence of NRAS G12C (P62937 whole entry): as the sequence (P62937 whole entry) above
Sequence of KRAS G12C (P01116 1-169 isoform P01116-2 G12C): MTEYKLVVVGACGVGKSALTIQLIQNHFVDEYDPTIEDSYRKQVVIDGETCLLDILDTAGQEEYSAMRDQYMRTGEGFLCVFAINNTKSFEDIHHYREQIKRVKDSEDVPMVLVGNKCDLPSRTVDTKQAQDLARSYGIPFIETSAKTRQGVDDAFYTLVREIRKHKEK
Sequence of KRAS G12C (P62937 whole entry): as the sequence (P62937 whole entry) above
Sequence of KRAS G12D (P01116 1-169 isoform P01116-2 G12D limits assumed): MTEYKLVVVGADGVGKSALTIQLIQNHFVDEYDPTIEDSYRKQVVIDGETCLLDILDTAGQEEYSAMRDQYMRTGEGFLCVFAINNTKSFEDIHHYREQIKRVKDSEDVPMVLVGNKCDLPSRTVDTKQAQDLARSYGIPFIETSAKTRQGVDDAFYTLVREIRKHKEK
Sequence of KRAS G12D (P62937 whole entry): as the sequence (P62937 whole entry) above
Sequence of KRAS WT (P01116 1-169 isoform P01116-2 limits assumed): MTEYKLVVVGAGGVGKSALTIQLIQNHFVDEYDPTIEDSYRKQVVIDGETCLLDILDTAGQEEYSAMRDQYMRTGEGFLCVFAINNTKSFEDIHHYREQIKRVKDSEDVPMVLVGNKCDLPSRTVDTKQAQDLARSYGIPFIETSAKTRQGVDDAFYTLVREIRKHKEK
Sequence of KRAS WT (P62937 whole entry): as the sequence (P62937 whole entry) above
Sequence of KRAS G13C (P01116 1-169 isoform P01116-2 G13C): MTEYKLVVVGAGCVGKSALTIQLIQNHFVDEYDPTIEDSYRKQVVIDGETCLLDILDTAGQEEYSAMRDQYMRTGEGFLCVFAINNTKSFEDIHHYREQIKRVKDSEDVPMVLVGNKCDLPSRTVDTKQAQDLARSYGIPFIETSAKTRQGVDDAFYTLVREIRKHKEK
Sequence of KRAS G13C (P62937 whole entry): as the sequence (P62937 whole entry) above

Row | SMILES | IC50 (NRAS WT; [1]) [nM] | IC50 (NRAS Q61K; [2]) [nM] | IC50 (KRAS Q61H; [3]) [nM] | IC50 (NRAS Q61R; [4]) [nM] | IC50 (Capan-1 (K-Ras G12V); [5]) [µM] | IC50 (NCI-H358 (K-Ras G12C)) [nM] | IC50 (KRAS G13D; [6]) [nM] | IC50 (KRAS WT; [7]) [nM] | IC50 (NRAS G12C; [8]) [nM] | IC50 (KRAS G12S; [9]) [nM] | IC50 (KRAS G12D; [10]) [nM] | IC50 (KRAS G12V; [11]) [nM] | IC50 (KRAS G13C; [12]) [nM] | IC50 (KRAS G12C; [13]) [nM] | also measured
1 | CCn1c(-c2cccnc2[C@H](C)OC)c2c3cc(ccc31)-c1csc(n1)C[C@H](NC(=O)[C@H](C(C)C)N(C)C(=O)N1CC[C@H](N(C)C)C1)C(=O)N1CCC[C@H](N1)C(=O)OCC(C)(C)C2 [Example A603] | 100 to 1000 | 100 to 1000 | 100 to 1000 | 100 to 1000 | 0.01 to 0.1 | 10 to 100 | 100 to 1000 | 100 to 1000 | 100 to 1000 | 100 to 1000 | 100 to 1000 | 100 to 1000 | 100 to 1000 | 100 to 1000 | –
2 | CCn1c(-c2cc(C3CCN(C)CC3)cnc2[C@H](C)OC)c2c3cc(ccc31)-c1csc(n1)C[C@H](NC(=O)[C@H](C(C)C)N(C)C(=O)N1CC(C3COC3)C1)C(=O)N1CCC[C@H](N1)C(=O)OCC(C)(C)C2 [Example A465] | 10 to 100 | 10 to 100 | 10 to 100 | 10 to 100 | – | < 10 | 100 to 1000 | 10 to 100 | 10 to 100 | 10 to 100 | 100 to 1000 | 10 to 100 | 10 to 100 | 10 to 100 | IC50 (Capan-1 (K-Ras G12V); read-out: Capan-1 Cell Viability assay data (K-Ras G12V, IC50, uM)): < 0.01 µM
3 | CCn1c(-c2cccnc2[C@H](C)OC)c2c3cc(ccc31)-c1csc(n1)C[C@H](NC(=O)[C@H](C(C)C)N(C)C(=O)N1CCCC13CCOCC3)C(=O)N1CCC[C@H](N1)C(=O)OCC(C)(C)C2 (atropisomer, axis not shown) [Example A520] | 100 to 1000 | 10 to 100 | 10 to 100 | 10 to 100 | 0.01 to 0.1 | 10 to 100 | 100 to 1000 | 100 to 1000 | 100 to 1000 | 100 to 1000 | 100 to 1000 | 100 to 1000 | 100 to 1000 | 100 to 1000 | –
4 | CCn1c(-c2cccnc2[C@H](C)OC)c2c3cc(ccc31)-c1csc(n1)C[C@H](NC(=O)[C@H](C(C)C)N(C)C(=O)N(C)C[C@@H]1CCCN1C)C(=O)N1CCC[C@H](N1)C(=O)OCC(C)(C)C2 [Example A504] | 100 to 1000 | 1000 to 10000 | 100 to 1000 | 1000 to 10000 | 0.1 to 1 | 100 to 1000 | 100 to 1000 | 100 to 1000 | 100 to 1000 | 1000 to 10000 | 1000 to 10000 | 1000 to 10000 | 100 to 1000 | 100 to 1000 | –
5 | CCn1c(-c2cccnc2[C@H](C)OC)c2c3cc(ccc31)-c1csc(n1)C[C@H](NC(=O)[C@H](C(C)C)N(C)C(=O)N1CC(C(C)(C)OC)C1)C(=O)N1CCC[C@H](N1)C(=O)OCC(C)(C)C2 (atropisomer, axis not shown) [Example A614] | 100 to 1000 | 10 to 100 | 10 to 100 | 100 to 1000 | 0.01 to 0.1 | 10 to 100 | 100 to 1000 | 100 to 1000 | 10 to 100 | 100 to 1000 | 100 to 1000 | 100 to 1000 | 100 to 1000 | 10 to 100 | –
6 | CCn1c(-c2cccnc2[C@H](C)OC)c2c3cc(ccc31)-c1csc(n1)C[C@H](NC(=O)[C@H](C(C)C)N(C)C(=O)N1CCC[C@@H](N(C)C)CC1)C(=O)N1CCC[C@H](N1)C(=O)OCC(C)(C)C2 [Example A494] | – | – | – | – | 0.01 to 0.1 | 10 to 100 | – | – | – | – | – | – | – | – | IC50 (NRAS WT; NRAS WT FRET data IC50, NRAS WT): 10 to 100 nM; IC50 (NRAS Q61K; NRAS Q61K FRET data IC50, NRAS Q61K): 10 to 100 nM; IC50 (KRAS Q61H; KRAS Q61H FRET data IC50, KRAS Q61H): 10 to 100 nM; IC50 (NRAS Q61R; NRAS Q61R FRET data IC50, NRAS Q61R): 10 to 100 nM; IC50 (KRAS G13D; KRAS G13D FRET data IC50, KRAS G13D): 100 to 1000 nM; IC50 (KRAS WT; KRAS WT FRET data IC50, KRAS WT): 10 to 100 nM; IC50 (NRAS G12C; NRAS G12C FRET data IC50, NRAS G12C): 10 to 100 nM; IC50 (KRAS G12S; KRAS G12S FRET data, IC50): 10 to 100 nM; IC50 (KRAS G12D; KRAS G12D FRET data, IC50): 10 to 100 nM; IC50 (KRAS G12V; KRAS G12V FRET data IC50, KRAS G12V): 100 to 1000 nM; IC50 (KRAS G13C; KRAS G13C FRET data, IC50): 100 to 1000 nM; IC50 (KRAS G12C; KRAS G12C FRET data, IC50): 10 to 100 nM
7 | CCn1c(-c2cccnc2[C@H](C)OC)c2c3cc(ccc31)-c1csc(n1)C[C@H](NC(=O)[C@H](C(C)C)N(C)C(=O)N1CCN(C(=O)CCN(C)C)CC1)C(=O)N1CCC[C@H](N1)C(=O)OCC(C)(C)C2 [Example A459] | 10 to 100 | 10 to 100 | 10 to 100 | 10 to 100 | 0.1 to 1 | 10 to 100 | 10 to 100 | 10 to 100 | 10 to 100 | 10 to 100 | 100 to 1000 | 100 to 1000 | 10 to 100 | 10 to 100 | –
8 | CCn1c(-c2cccnc2[C@H](C)OC)c2c3cc(ccc31)-c1csc(n1)C[C@H](NC(=O)C1(F)COC1)C(=O)N1CCC[C@H](N1)C(=O)OCC(C)(C)C2 [Example A320] | 100 to 1000 | 100 to 1000 | 100 to 1000 | 1000 to 10000 | 0.1 to 1 | 1000 to 10000 | 1000 to 10000 | 100 to 1000 | 100 to 1000 | 100 to 1000 | 1000 to 10000 | 100 to 1000 | 100 to 1000 | 100 to 1000 | –
